Reference: patent US8927500B2, “Peptidomimetic macrocycles” (Aileron Therapeutics, Inc., priority 2012, dated 2015)
Read-outs that look alike come from different tables or passages of the source. Each block holds one compound with its values, some of them ahead of it. Where a SMILES comes first, the peptide text is derived from it. Bridges are numbered along the chain shown (N, C = ends). [ ]: non-standard residue; d: D form. Phe(4-COOH) = N[C@@H](Cc1ccc(C(=O)O)cc1)C(=O)O; Phe(3,4-F2) = N[C@@H](Cc1ccc(F)c(F)c1)C(=O)O; R8 = C=CCCCCCC[C@@](C)(N)C(=O)O; Cba = N[C@@H](CC1CCC1)C(=O)O; S5 = C=CCCC[C@](C)(N)C(=O)O; Nle = CCCC[C@H](N)C(=O)O

Experiments:
SJSA-1 cells = experiment: Cell lysis by peptidomimetic macrocycles (LDH release); type: cell-based; conditions: 1 h at 37C
MDMX = target: T1, MDMX (Homo sapiens, UniProt O15151); experiment: Competitive fluorescence polarization assay for MDMX; type: binding; conditions: competitive FP assay
T1 sequence (O15151 1-125): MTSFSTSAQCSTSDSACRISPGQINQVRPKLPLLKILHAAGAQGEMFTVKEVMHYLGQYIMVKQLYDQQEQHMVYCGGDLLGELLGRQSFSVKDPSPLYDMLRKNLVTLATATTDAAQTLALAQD

MDM2 = MDM2 (Homo sapiens, UniProt Q00987); experiment: Competitive fluorescence polarization assay for MDM2; type: binding; conditions: competitive FP assay, MDM2
Caspase 3 = Caspase 3 detection assay in SJSA1 cells; type: cell-based; conditions: 48 h, Caspase 3 activation over DMSO-treated cells; for caspase 0.3 uM: 0.3 uM peptide; for caspase 3 uM: 3 uM peptide; for caspase 10 uM: 10 uM peptide; for caspase 30 uM: 30 uM peptide

MDM2, sequence (Q00987 1-125): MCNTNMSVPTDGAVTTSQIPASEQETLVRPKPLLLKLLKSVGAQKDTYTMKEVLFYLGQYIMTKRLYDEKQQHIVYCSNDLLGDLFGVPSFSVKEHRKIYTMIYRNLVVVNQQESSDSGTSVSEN

Compound: CC(=O)N[C@@H](CC(C)C)C(=O)N[C@H](C(=O)N[C@@H](Cc1ccccc1)C(=O)N[C@]1(C)CCCCCCC=CCCC[C@@](C)(C(=O)N[C@@H](CO)C(=O)N[C@@H](C)C(=O)N[C@@H](C)C(N)=O)NC(=O)[C@H](CC(C)C)NC(=O)[C@H](C)NC(=O)[C@H](C)NC(=O)[C@H](Cc2c[nH]c3ccccc23)NC(=O)[C@H](Cc2c[nH]cn2)NC(=O)[C@H](C)NC1=O)[C@@H](C)O [compound 197] (Ac-LTF[R8]AHWAAL[S5]SAA-NH2; staple 4-11)
6.25 uM % Lysed cells (1 h LDH) (SJSA-1 cells): 1% | 25 uM % Lysed cells (1 h LDH) (SJSA-1 cells): −1% | 50 uM % Lysed cells (1 h LDH) (SJSA-1 cells): −2% | IC50 (MDMX; IC50 (MDMX)): 100 to 1000 nM | Ki (MDMX; Ki (MDMX)): 10 to 100 nM | IC50 (MDM2; IC50 (MDM2)): < 10 nM | Ki (MDM2; Ki (MDM2)): < 10 nM | caspase 0.3 uM (Caspase 3): 1 | caspase 3 uM (Caspase 3): 1 | caspase 10 uM (Caspase 3): 10 | caspase 30 uM (Caspase 3): 20

Compound: CCCC[C@H](NC(=O)[C@H](C)NC(=O)[C@H](CO)NC(=O)[C@]1(C)CCCC=CCCCCCC[C@@](C)(NC(=O)[C@H](Cc2ccccc2)NC(=O)[C@@H](NC(=O)[C@H](CC(C)C)NC(C)=O)[C@@H](C)O)C(=O)N[C@@H](CCC(=O)O)C(=O)N[C@@H](Cc2ccc(O)cc2)C(=O)N[C@@H](Cc2c[nH]c3ccccc23)C(=O)N[C@@H](CO)C(=O)N[C@@H](CCC(N)=O)C(=O)N[C@@H](CC2CCC2)C(=O)N1)C(=O)N[C@@H](C)C(N)=O [compound 245] (Ac-LTF[R8]EYWSQ[Cba][S5]SA[Nle]A-NH2; staple 4-11)
6.25 uM % Lysed cells (1 h LDH) (SJSA-1 cells): 1% | 25 uM % Lysed cells (1 h LDH) (SJSA-1 cells): 11% | 50 uM % Lysed cells (1 h LDH) (SJSA-1 cells): 56% | IC50 (MDMX; read-out: IC50 (MDMX)): 10 to 100 nM | Ki (MDMX; read-out: Ki (MDMX)): 10 to 100 nM | IC50 (MDM2; read-out: IC50 (MDM2)): 10 to 100 nM | Ki (MDM2; read-out: Ki (MDM2)): < 10 nM | caspase 0.3 uM (Caspase 3): 1 | caspase 3 uM (Caspase 3): 3 | caspase 10 uM (Caspase 3): 9 | caspase 30 uM (Caspase 3): 16

Compound: CC[C@H](C)[C@H](NC(=O)[C@H](C)NC(=O)[C@H](C)NC(=O)[C@]1(C)CCC/C=C/CCCCCC[C@@](C)(NC(=O)[C@H](Cc2ccccc2)NC(=O)[C@@H](NC(=O)[C@H](CC(C)C)NC(C)=O)[C@@H](C)O)C(=O)N[C@@H](CCC(=O)O)C(=O)N[C@@H](Cc2ccc(C(=O)O)cc2)C(=O)N[C@@H](Cc2c[nH]c3ccccc23)C(=O)N[C@@H](C)C(=O)N[C@@H](CCC(N)=O)C(=O)N[C@@H](CC2CCC2)C(=O)N1)C(=O)N[C@H](C)C(N)=O [compound 249] (Ac-LTF[R8]E[Phe(4-COOH)]WAQ[Cba][S5]AAI[dA]-NH2; staple (E) 4-11)
6.25 uM % Lysed cells (1 h LDH) (SJSA-1 cells): 0% | 25 uM % Lysed cells (1 h LDH) (SJSA-1 cells): 0% | 50 uM % Lysed cells (1 h LDH) (SJSA-1 cells): 0% | IC50 (MDMX; read-out: IC50 (MDMX)): 10 to 100 nM | Ki (MDMX; read-out: Ki (MDMX)): < 10 nM | IC50 (MDM2; read-out: IC50 (MDM2)): 10 to 100 nM | Ki (MDM2; read-out: Ki (MDM2)): < 10 nM | caspase 0.3 uM (Caspase 3): 2 | caspase 3 uM (Caspase 3): 5 | caspase 10 uM (Caspase 3): 11 | caspase 30 uM (Caspase 3): 23

Further lines, with some results ahead:

IC50 (MDMX; read-out: IC50 (MDMX)): 100 to 1000 nM | Ki (MDMX; read-out: Ki (MDMX)): 10 to 100 nM | IC50 (MDM2; read-out: IC50 (MDM2)): 10 to 100 nM | Ki (MDM2; read-out: Ki (MDM2)): < 10 nM
Compound: CC(=O)N[C@@H](CC(C)C)C(=O)N[C@H](C(=O)N[C@@H](Cc1ccccc1)C(=O)N[C@]1(C)CCCCCCC=CCCC[C@@](C)(C(=O)N[C@@H](C)C(=O)N[C@@H](Cc2c[nH]cn2)C(=O)N[C@@H](Cc2ccccc2)C(=O)N[C@@H](C)C(N)=O)NC(=O)[C@H](CC(C)C)NC(=O)[C@H](C)NC(=O)[C@H](C)NC(=O)[C@H](Cc2c[nH]c3ccccc23)NC(=O)[C@H](Cc2ccc(O)cc2)NC(=O)[C@H](C)NC1=O)[C@@H](C)O [compound 204] (Ac-LTF[R8]AYWAAL[S5]AHFA-NH2; staple 4-11)
6.25 uM % Lysed cells (1 h LDH) (SJSA-1 cells): 4% | 25 uM % Lysed cells (1 h LDH) (SJSA-1 cells): 2% | 50 uM % Lysed cells (1 h LDH) (SJSA-1 cells): 0% | caspase 0.3 uM (Caspase 3): 1 | caspase 3 uM (Caspase 3): 4 | caspase 10 uM (Caspase 3): 10 | caspase 30 uM (Caspase 3): 10

IC50 (MDMX; read-out: IC50 (MDMX)): 100 to 1000 nM | Ki (MDMX; read-out: Ki (MDMX)): 10 to 100 nM | IC50 (MDM2; read-out: IC50 (MDM2)): 10 to 100 nM | Ki (MDM2; read-out: Ki (MDM2)): < 10 nM
Compound: CCCC[C@H](NC(=O)[C@H](C)NC(=O)[C@H](C)NC(=O)[C@]1(C)CCCC=CCCCCCC[C@@](C)(NC(=O)[C@H](Cc2ccccc2)NC(=O)[C@@H](NC(=O)[C@H](CCC(=O)O)NC(C)=O)[C@@H](C)O)C(=O)N[C@@H](C)C(=O)N[C@@H](Cc2ccc(O)cc2)C(=O)N[C@@H](Cc2c[nH]c3ccccc23)C(=O)N[C@@H](C)C(=O)N[C@@H](CCC(N)=O)C(=O)N[C@@H](CC2CCC2)C(=O)N1)C(=O)N[C@@H](C)C(N)=O [compound 237] (Ac-ETF[R8]AYWAQ[Cba][S5]AA[Nle]A-NH2; staple 4-11)
6.25 uM % Lysed cells (1 h LDH) (SJSA-1 cells): 0% | 25 uM % Lysed cells (1 h LDH) (SJSA-1 cells): 7% | 50 uM % Lysed cells (1 h LDH) (SJSA-1 cells): 55% | caspase 0.3 uM (Caspase 3): 1 | caspase 3 uM (Caspase 3): 5 | caspase 10 uM (Caspase 3): 9 | caspase 30 uM (Caspase 3): 15

IC50 (MDMX; read-out: IC50 (MDMX)): 10 to 100 nM | Ki (MDMX; read-out: Ki (MDMX)): 10 to 100 nM | IC50 (MDM2; read-out: IC50 (MDM2)): 10 to 100 nM | Ki (MDM2; read-out: Ki (MDM2)): < 10 nM
Compound: CCCC[C@H](NC(=O)[C@H](C)NC(=O)[C@H](CO)NC(=O)[C@]1(C)CCCC=CCCCCCC[C@@](C)(NC(=O)[C@H](Cc2ccc(F)c(F)c2)NC(=O)[C@@H](NC(=O)[C@H](CC(C)C)NC(C)=O)[C@@H](C)O)C(=O)N[C@@H](CCC(=O)O)C(=O)N[C@@H](Cc2ccc(O)cc2)C(=O)N[C@@H](Cc2c[nH]c3ccccc23)C(=O)N[C@@H](C)C(=O)N[C@@H](CCC(N)=O)C(=O)N[C@@H](CC2CCC2)C(=O)N1)C(=O)N[C@@H](C)C(N)=O [compound 243] (Ac-LT[Phe(3,4-F2)][R8]EYWAQ[Cba][S5]SA[Nle]A-NH2; staple 4-11)
6.25 uM % Lysed cells (1 h LDH) (SJSA-1 cells): 4% | 25 uM % Lysed cells (1 h LDH) (SJSA-1 cells): 39% | 50 uM % Lysed cells (1 h LDH) (SJSA-1 cells): 64% | caspase 0.3 uM (Caspase 3): 1 | caspase 3 uM (Caspase 3): 2 | caspase 10 uM (Caspase 3): 5 | caspase 30 uM (Caspase 3): 23

IC50 (MDMX; read-out: IC50 (MDMX)): 10 to 100 nM | Ki (MDMX; read-out: Ki (MDMX)): < 10 nM | IC50 (MDM2; read-out: IC50 (MDM2)): 10 to 100 nM | Ki (MDM2; read-out: Ki (MDM2)): < 10 nM
Compound: CCCC[C@H](NC(=O)[C@H](C)NC(=O)[C@H](CO)NC(=O)[C@]1(C)CCCC=CCCCCCC[C@@](C)(NC(=O)[C@H](Cc2ccccc2)NC(=O)[C@@H](NC(=O)[C@H](CC(C)C)NC(C)=O)[C@@H](C)O)C(=O)N[C@@H](CCC(=O)O)C(=O)N[C@@H](Cc2ccc(C(=O)O)cc2)C(=O)N[C@@H](Cc2c[nH]c3ccccc23)C(=O)N[C@@H](C)C(=O)N[C@@H](CCC(N)=O)C(=O)N[C@@H](CC2CCC2)C(=O)N1)C(=O)N[C@@H](C)C(N)=O [compound 244] (Ac-LTF[R8]E[Phe(4-COOH)]WAQ[Cba][S5]SA[Nle]A-NH2; staple 4-11)
6.25 uM % Lysed cells (1 h LDH) (SJSA-1 cells): 0% | 25 uM % Lysed cells (1 h LDH) (SJSA-1 cells): 0% | 50 uM % Lysed cells (1 h LDH) (SJSA-1 cells): 4% | caspase 0.3 uM (Caspase 3): 1 | caspase 3 uM (Caspase 3): 2 | caspase 10 uM (Caspase 3): 7 | caspase 30 uM (Caspase 3): 17

IC50 (MDMX; read-out: IC50 (MDMX)): 10 to 100 nM | Ki (MDMX; read-out: Ki (MDMX)): 10 to 100 nM | IC50 (MDM2; read-out: IC50 (MDM2)): 10 to 100 nM | Ki (MDM2; read-out: Ki (MDM2)): < 10 nM
Compound: CC[C@H](C)[C@H](NC(=O)[C@H](C)NC(=O)[C@H](C)NC(=O)[C@]1(C)CCCC=CCCCCCC[C@@](C)(NC(=O)[C@H](Cc2ccccc2)NC(=O)[C@@H](NC(=O)[C@H](CC(C)C)NC(C)=O)[C@@H](C)O)C(=O)N[C@@H](CCC(=O)O)C(=O)N[C@@H](Cc2ccc(O)cc2)C(=O)N[C@@H](Cc2c[nH]c3ccccc23)C(=O)N[C@@H](C)C(=O)N[C@@H](CCC(N)=O)C(=O)N[C@@H](CC2CCC2)C(=O)N1)C(=O)N[C@H](C)C(N)=O [compound 247] (Ac-LTF[R8]EYWAQ[Cba][S5]AAI[dA]-NH2; staple 4-11)
6.25 uM % Lysed cells (1 h LDH) (SJSA-1 cells): 0% | 25 uM % Lysed cells (1 h LDH) (SJSA-1 cells): 0% | 50 uM % Lysed cells (1 h LDH) (SJSA-1 cells): 4% | caspase 0.3 uM (Caspase 3): 1 | caspase 3 uM (Caspase 3): 3 | caspase 10 uM (Caspase 3): 11 | caspase 30 uM (Caspase 3): 24
